This experiment concerns CAF1 mice, leiomyosarcoma No.2 ip, survival T/C%. Description: NCI In Vivo Anticancer Drug Screen. Data for tumor model Leiomyosarcoma (No. 2) (intraperitoneal) in CAF1 mice. Particulars: endpoint: mean survival time, higher = longer survival. The method, then: The antitumor activity of compounds was measured in mice bearing transplantable tumors. Survival or tumor size were measured and the results are expressed as the measurement made in the treated group (T) divided by the measurement made in the vehicle treated control group (C). The tumor model used in this assay is Leiomyosarcoma (No. 2) (intraperitoneal) in CAF1 mice

Setting [1] is: dose: 12.5 mg/kg/injection, schedule: Q01DX010 (ip), vehicle: saline.
[2] abbreviates: dose: 25.0 mg/kg/injection, schedule: Q01DX010 (ip), vehicle: saline.
The mark [3] stands for this setting: dose: 50.0 mg/kg/injection, schedule: Q01DX010 (ip), vehicle: saline.
[4] abbreviates: dose: 15.0 mg/kg/injection, schedule: Q01DX010 (ip), vehicle: saline.
[5] abbreviates: dose: 30.0 mg/kg/injection, schedule: Q01DX010 (ip), vehicle: saline.
The mark [6] stands for this setting: dose: 60.0 mg/kg/injection, schedule: Q01DX010 (ip), vehicle: saline.
Setting [7] is: dose: 12.5 mg/kg/injection, schedule: Q01DX010 (sc), vehicle: steriod suspending solution.
Where [8] appears, read: dose: 25.0 mg/kg/injection, schedule: Q01DX010 (sc), vehicle: steriod suspending solution.
Where [9] appears, read: dose: 50.0 mg/kg/injection, schedule: Q01DX010 (sc), vehicle: steriod suspending solution.
[10] abbreviates: dose: 100.0 mg/kg/injection, schedule: Q01DX010 (sc), vehicle: steriod suspending solution.
Where [11] appears, read: dose: 250.0 mg/kg/injection, schedule: Q01DX010 (ip), vehicle: saline.
Where [12] appears, read: dose: 6.0 mg/kg/injection, schedule: Q01DX010 (ip), vehicle: saline.
[13] abbreviates: dose: 8.0 mg/kg/injection, schedule: Q01DX010 (ip), vehicle: saline.
Where [14] appears, read: dose: 16.0 mg/kg/injection, schedule: Q01DX010 (ip), vehicle: saline.
Where [15] appears, read: dose: 32.0 mg/kg/injection, schedule: Q01DX010 (ip), vehicle: saline.
Setting [16] is: dose: 64.0 mg/kg/injection, schedule: Q01DX010 (ip), vehicle: saline.
Setting [17] is: dose: 31.3 mg/kg/injection, schedule: Q01DX010 (ip), vehicle: saline.
The mark [18] stands for this setting: dose: 10.0 mg/kg/injection, schedule: Q01DX010 (ip), vehicle: saline.
Where [19] appears, read: dose: 20.0 mg/kg/injection, schedule: Q01DX010 (ip), vehicle: saline.
The mark [20] stands for this setting: dose: 40.0 mg/kg/injection, schedule: Q01DX010 (ip), vehicle: saline.
Where [21] appears, read: dose: 100.0 mg/kg/injection, schedule: Q01DX010 (ip), vehicle: saline.
Where [22] appears, read: dose: 200.0 mg/kg/injection, schedule: Q01DX010 (ip), vehicle: saline.
Setting [23] is: dose: 2.0 mg/kg/injection, schedule: Q01DX010 (ip), vehicle: saline.
The mark [24] stands for this setting: dose: 4.0 mg/kg/injection, schedule: Q01DX010 (ip), vehicle: saline.
The mark [25] stands for this setting: dose: 5.0 mg/kg/injection, schedule: Q01DX010 (ip), vehicle: saline.
[26] abbreviates: dose: 18.8 mg/kg/injection, schedule: Q01DX010 (ip), vehicle: saline.
[27] abbreviates: dose: 37.5 mg/kg/injection, schedule: Q01DX010 (ip), vehicle: saline.
Setting [28] is: dose: 75.0 mg/kg/injection, schedule: Q01DX010 (ip), vehicle: saline.
The mark [29] stands for this setting: dose: 150.0 mg/kg/injection, schedule: Q01DX010 (ip), vehicle: saline.
The mark [30] stands for this setting: dose: 2.5 mg/kg/injection, schedule: Q01DX010 (ip), vehicle: saline.
Setting [31] is: dose: 120.0 mg/kg/injection, schedule: Q01DX010 (ip), vehicle: saline.

“And” between values parts separate entries of the source, which are not always exact repeats. Equal values may be shown once. Inconclusive results and toxic doses are left out.

Consider `COS(C)(=O)=O`, for which the T/C is, setting by setting: under setting [1], 108 % of control; under setting [2], 108 % of control; under setting [3], 112 % of control.
In the case of `Clc1ncnc2nc[nH]c12`, the T/C is, setting by setting: (dose: 7.5 mg/kg/injection, schedule: Q01DX010 (ip), vehicle: saline) 86 % of control and 107 % of control; under setting [4], 93 % of control and 103 % of control; under setting [5], 111 % of control and 116 % of control; under setting [6], 107 % of control.
On to `CC(=O)O[C@]1(C(C)=O)CC[C@H]2[C@@H]3C[C@H](C)C4=CC(=O)C=C[C@]4(C)[C@@]3(F)[C@@H](O)C[C@@]21C`, for which the T/C was 96 % of control under setting [7], 104 % of control under setting [8], 88 % of control under setting [9] and 88 % of control under setting [10].
Turning to `CC(=O)N(C)C`, the T/C is, setting by setting: (dose: 62.5 mg/kg/injection, schedule: Q01DX010 (ip), vehicle: saline) 90 % of control; under setting [11], 96 % of control.
In the case of `Nc1ncnc2[nH]ncc12`, the T/C runs as follows: (dose: 1.5 mg/kg/injection, schedule: Q01DX010 (ip), vehicle: saline) 107 % of control and 112 % of control; (dose: 3.0 mg/kg/injection, schedule: Q01DX010 (ip), vehicle: saline) 103 % of control and 108 % of control; under setting [12], 96 % of control and 100 % of control; (dose: 12.0 mg/kg/injection, schedule: Q01DX010 (ip), vehicle: saline) 88 % of control and 95 % of control.
Take `c1ccc(CNc2ncnc3[nH]ncc23)cc1`: the T/C under setting [13] was 95 % of control and 103 % of control; the T/C under setting [14] is 92 % of control and 100 % of control; the T/C under setting [15] was 92 % of control and 100 % of control; the T/C under setting [16] is 95 % of control and 96 % of control.
As for `CCCSc1ncnc2nc[nH]c12`, the T/C was 189 % of control and 233 % of control under setting [17]; 103 % of control and 117 % of control (dose: 125.0 mg/kg/injection, schedule: Q01DX010 (ip), vehicle: saline); 103 % of control under setting [11].
Take `Nc1nc(SCc2ccccc2)c2[nH]cnc2n1`: the T/C is, setting by setting: under setting [13], 112 % of control and 115 % of control; under setting [14], 100 % of control; under setting [15], 107 % of control and 120 % of control; under setting [16], 103 % of control and 104 % of control.
As to `Cc1cc(N(CCCl)CCCl)ccc1N=Nc1ccccc1C(=O)O`, the T/C is, setting by setting: under setting [18], 150 % of control and 183 % of control; under setting [19], 175 % of control; under setting [20], 104 % of control and 225 % of control.
For the compound `CS(=O)(=O)OCC(O)C(O)C(O)C(O)COS(C)(=O)=O` (configuration not stated), the T/C was 104 % of control under setting [2]; 109 % of control and 113 % of control under setting [3]; 118 % of control under setting [21]; 118 % of control under setting [22].
Regarding `CC(CCC(C)OS(C)(=O)=O)OS(C)(=O)=O` (configuration not stated), the T/C under setting [23] was 104 % of control; the T/C under setting [24] was 100 % of control; the T/C under setting [13] was 103 % of control and 104 % of control; the T/C under setting [14] was 117 % of control.
Consider `CC/C(=C(/CC)c1ccc(O)cc1)c1ccc(O)cc1`, for which the T/C under setting [7] is 91 % of control and 96 % of control; the T/C under setting [8] was 96 % of control and 100 % of control; the T/C under setting [9] was 91 % of control and 92 % of control; the T/C under setting [10] was 91 % of control and 100 % of control.
As to `O=c1[nH]c(=O)n(C2CC(O)C(CO)O2)cc1F` (configuration not stated), the T/C is 118 % of control under setting [25] and 118 % of control under setting [18].
For `COc1ccc2c(c1OC)C(=O)O[C@@H]2[C@H]1c2c(cc3c(c2OC)OCO3)CCN1C`, the T/C under setting [17] is 92 % of control.
For the compound `C[C@@H]1C[C@@H]([C@H](O)CC2CC(=O)NC(=O)C2)C(=O)[C@@H](C)C1`, the T/C reads like this: under setting [25], 100 % of control and 103 % of control; under setting [18], 110 % of control and 111 % of control; under setting [19], 116 % of control; under setting [20], 163 % of control and 169 % of control.
For `CN(C)c1nc(N(C)C)nc(N(C)C)n1`, the T/C was 100 % of control and 108 % of control under setting [26]; 89 % of control and 112 % of control under setting [27]; 96 % of control and 104 % of control under setting [28]; 110 % of control under setting [29].
`CSc1ncnc2nc[nH]c12`: the T/C was 100 % of control and 109 % of control under setting [2]; 104 % of control and 109 % of control under setting [3]; 104 % of control and 113 % of control under setting [21]; 100 % of control under setting [22].
As to `Nc1nc(F)nc2c1ncn2C1OC(CO)C(O)C1O` (configuration not stated), the T/C was 104 % of control (dose: 0.5 mg/kg/injection, schedule: Q01DX010 (ip), vehicle: saline); 104 % of control and 113 % of control (dose: 1.0 mg/kg/injection, schedule: Q01DX010 (ip), vehicle: saline); 100 % of control and 109 % of control under setting [23]; 113 % of control and 118 % of control under setting [24]; 86 % of control under setting [13].
Turning to `CN1CC[C@]23c4c5ccc(O)c4O[C@H]2C(=O)CC[C@H]3[C@H]1C5`, the T/C was 96 % of control under setting [24], 92 % of control under setting [13], 104 % of control under setting [14] and 92 % of control under setting [15].
Take `N#[N+]c1cnc([O-])[nH]c1=O`: the T/C is 213 % of control under setting [30] and 93 % of control under setting [18].
As for `O=C(Nc1ccc(C2=NCCN2)cc1)c1cccc(C(=O)Nc2ccc(C3=NCCN3)cc2)c1`, the T/C is 260 % of control and 300 % of control under setting [13]; 257 % of control and 260 % of control under setting [14].
Turning to `C#CCN(C)Cc1ccccc1`, the T/C is, setting by setting: under setting [3], 102 % of control; under setting [21], 88 % of control; under setting [22], 91 % of control.
Consider `CCOC(=O)c1[nH]c2ccccc2c1CN(CCCl)CCCl`, for which the T/C under setting [18] was 116 % of control, the T/C under setting [19] is 170 % of control and the T/C under setting [20] is 150 % of control.
As for `CCCCOP(=S)(N1CC1)N1CC1`, the T/C under setting [24] is 165 % of control, the T/C under setting [13] is 223 % of control and the T/C under setting [14] was 250 % of control.
On to `C[C@H]1C(=O)O[C@@H]2CCN3CC=C(COC(=O)[C@](C)(O)[C@@]1(C)O)[C@H]23`, for which the T/C runs as follows: (dose: 3.13 mg/kg/injection, schedule: Q01DX010 (ip), vehicle: saline) 100 % of control; (dose: 6.25 mg/kg/injection, schedule: Q01DX010 (ip), vehicle: saline) 94 % of control and 109 % of control; under setting [1], 86 % of control and 118 % of control; under setting [2], 108 % of control and 118 % of control.
As to `N=C(N)SCc1c2ccccc2c(CSC(=N)N)c2ccccc12`, the T/C was 172 % of control under setting [30]; 186 % of control and 209 % of control under setting [25]; 177 % of control and 204 % of control under setting [18]; 109 % of control and 209 % of control under setting [19]; 104 % of control under setting [20].
Consider `O=c1c(O)cccc2cc(O)c(O)c(O)c12`, for which the T/C by setting is: under setting [2], 88 % of control; under setting [3], 102 % of control.
For the compound `O=C(Nc1ccc(C2=NCCN2)cc1)c1ccc(C(=O)Nc2ccc(C3=NCCN3)cc2)c([N+](=O)[O-])c1`, the T/C by setting is: under setting [12], 121 % of control; under setting [13], 113 % of control.
In the case of `N#CCSc1ncnc2nc[nH]c12`, the T/C reads like this: under setting [4], 86 % of control and 113 % of control; under setting [5], 118 % of control and 120 % of control; under setting [6], 113 % of control; under setting [31], 118 % of control.
With `Nc1nc(=S)c2[nH]cnc2[nH]1`, the T/C is 300 % of control (dose: 1.25 mg/kg/injection, schedule: Q01DX010 (ip), vehicle: saline) and 93 % of control under setting [25].
`CS(=O)(=O)OCCCl`: the T/C reads like this: under setting [26], 100 % of control; under setting [27], 111 % of control; under setting [28], 116 % of control; under setting [29], 220 % of control and 269 % of control.
In the case of `CN(C)c1ccc(Nc2c3ccccc3nc3ccccc23)cc1`, the T/C reads like this: (dose: 36.0 mg/kg/injection, schedule: Q01DX010 (ip), vehicle: saline) 121 % of control; (dose: 54.0 mg/kg/injection, schedule: Q01DX010 (ip), vehicle: saline) 121 % of control; (dose: 80.0 mg/kg/injection, schedule: Q01DX010 (ip), vehicle: saline) 300 % of control; under setting [31], 300 % of control.

The values are drawn from PubChem BioAssay AID238 (DTP/NCI, 2004).
